Reference: article PMC12888861, “Antibacterial activity of enmetazobactam against Acinetobacter spp.: a molecular dissection of mechanism of action and resistance determinants” (Antimicrobial Agents and Chemotherapy, 2025)
≈ marks a conversion by molar mass, not a printed value. Like-named read-outs stand apart in the source and are kept apart here.

Legend:
[1] = tested on: A. non-baumannii isolates (n = 87); experiment: MIC, broth microdilution (EUCAST), A. non-baumannii isolates; type: cell-based, Acinetobacter spp. (non-baumannii); conditions: for MIC: read-out: MIC
Excerpt: The bacterial strains used in this study comprised 208 clinical isolates from the Spanish National Acinetobacter spp. 2020 Multicenter Collection, which was previously characterized in detail by our research group, including whole-genome sequencing, phylogenetics studies, clonal dynamics, and resistance mechanisms ([2], [29]). Additionally, a collection of A. baumannii ATCC 17978 transformants coding the blaOXA-23, blaOXA-24/40, blaOXA-51, blaOXA-58, blaOXA-143, and blaOXA-201 genes, previously constructed and described by our group ([30]), was used to determine the activity of enmetazobactam against strains carrying the main CHDLs of A. baumannii.
The antimicrobial susceptibility of the 208 Acinetobacter spp. isolates was assessed using the broth microdilution method, as described in the European Committee on Antimicrobial Susceptibility Testing (EUCAST) v.15 guidelines (http://www.eucast.org/clinical_breakpoints). […] MICs for enmetazobactam alone were assessed as well. […] Subsequently, MIC testing was also conducted with a collection of A. baumannii ATCC 17978 transformants expressing clinically relevant OXA-like carbapenemase genes.
The A. baumannii ATCC 19606 strain was used as the reference strain in all susceptibility experiments, in duplicate assays. Antibiotics were purchased from Sigma-Aldrich, except enmetazobactam and durlobactam, which were obtained from Advanz Pharma and MedChemExpress, respectively.

[2] = biological target: T1, OXA-23 (Acinetobacter baumannii, UniProt Q9L4P2); experiment: OXA-23 inhibition assay (nitrocefin hydrolysis IC50); type: biochemical; conditions: OXA-23; nitrocefin hydrolysis; 10 min preincubation at room temperature; read-out: IC50
T1 construct: GST (N); made in house; host or cells: Escherichia coli BL21
Protocol: The Michaelis-Menten constant (Km) was determined by fitting the data to the Michaelis-Menten equation, following established protocols ([38]). The kcat (hydrolysis rate constant of the β-lactamase) was obtained by linearization of the kinetic data ([39]). To assess the possible inhibitory capacity of enmetazobactam against the CHDLs of A. baumannii, specific OXA-23 inhibition kinetics assays were performed in a Nanoquant Infinite spectrophotometer (Tecan). […] Also, the dissociation constant (koff), which represents the rate at which the enzyme-inhibitor complex dissociates (i.e., the proportion of the enzyme-inhibitor complex that dissociates per unit of time), was determined through a jump-dilution assay that monitored OXA-23 activity recovery as the enzyme-inhibitor complex dissociated. OXA-23 (1 µM) was preincubated for 30 min at 37°C with excess of inhibitors (50× IC₅₀) to ensure full acyl-enzyme complex formation. Subsequently, the mixture was diluted 1:5,000 to allow gradual complex dissociation. […] Enzymatic activity, reflecting the progressive dissociation of the acyl-enzyme complex, was monitored spectrophotometrically at 490 nm for 8 h. The resulting progress curves were fitted using GraphPad Prism (GraphPad Software, MA, USA) to equation 1 to estimate koff, where V0 is the initial, inhibited enzyme velocity; Vs is the steady-state uninhibited enzyme velocity, and t is time.

[3] = Acinetobacter, A. non-baumannii isolates (n=87), ETZ fixed 8 mg/L in combinations

T1 sequence (Q9L4P2 18-273): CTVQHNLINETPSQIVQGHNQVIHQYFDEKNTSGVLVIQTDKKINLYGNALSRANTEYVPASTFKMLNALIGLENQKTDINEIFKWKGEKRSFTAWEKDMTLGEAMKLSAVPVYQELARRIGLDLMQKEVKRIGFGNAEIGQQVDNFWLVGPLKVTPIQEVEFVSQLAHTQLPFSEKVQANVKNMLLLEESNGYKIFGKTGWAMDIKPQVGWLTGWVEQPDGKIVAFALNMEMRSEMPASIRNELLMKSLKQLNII

## C[n+]1ccn(C[C@@]2(C)[C@H](C(=O)[O-])N3C(=O)C[C@H]3S2(=O)=O)n1 [enmetazobactam]
[1]; Acinetobacter pittii, isolate NO-Ab97, Acinetobacter pittii, in combinations ETZ fixed at 8 mg/L
  MIC: 2 µg/mL
[1]; Acinetobacter pittii, isolate NO-Ab105, Acinetobacter pittii, in combinations ETZ fixed at 8 mg/L
  MIC: 2 µg/mL
[1]; Acinetobacter pittii, isolate NO-Ab106, Acinetobacter pittii, in combinations ETZ fixed at 8 mg/L
  MIC: 2 µg/mL
[1]; Acinetobacter pittii, isolate NO-Ab107, Acinetobacter pittii, in combinations ETZ fixed at 8 mg/L
  MIC: 1 µg/mL
[1]; Acinetobacter pittii, isolate NO-Ab111, Acinetobacter pittii, in combinations ETZ fixed at 8 mg/L
  MIC: 2 µg/mL
[1]; Acinetobacter pittii, isolate NO-Ab113, Acinetobacter pittii, in combinations ETZ fixed at 8 mg/L
  MIC: 2 µg/mL
[1]; Acinetobacter pittii, isolate NO-Ab118, Acinetobacter pittii, in combinations ETZ fixed at 8 mg/L
  MIC: 2 µg/mL
[1]; Acinetobacter pittii, isolate NO-Ab135, Acinetobacter pittii, in combinations ETZ fixed at 8 mg/L
  MIC: 2 µg/mL
[1]; Acinetobacter pittii, isolate NO-Ab145, Acinetobacter pittii, in combinations ETZ fixed at 8 mg/L
  MIC: 2 µg/mL
[1]; Acinetobacter pittii, isolate NO-Ab151, Acinetobacter pittii, in combinations ETZ fixed at 8 mg/L
  MIC: 4 µg/mL
[1]; Acinetobacter pittii, isolate NO-Ab154, Acinetobacter pittii, in combinations ETZ fixed at 8 mg/L
  MIC: 2 µg/mL
[1]; Acinetobacter pittii, isolate NO-Ab157, Acinetobacter pittii, in combinations ETZ fixed at 8 mg/L
  MIC: 4 µg/mL
[1]; Acinetobacter pittii, isolate NO-Ab162, Acinetobacter pittii, in combinations ETZ fixed at 8 mg/L
  MIC: 4 µg/mL
[1]; Acinetobacter pittii, isolate NO-Ab164, Acinetobacter pittii, in combinations ETZ fixed at 8 mg/L
  MIC: 2 µg/mL
[1]; Acinetobacter pittii, isolate NO-Ab178, Acinetobacter pittii, in combinations ETZ fixed at 8 mg/L
  MIC: 2 µg/mL
[1]; Acinetobacter pittii, isolate NO-Ab197, Acinetobacter pittii, in combinations ETZ fixed at 8 mg/L
  MIC: 2 µg/mL
[1]; Acinetobacter proteolyticus, isolate NO-Ab99, Acinetobacter proteolyticus, in combinations ETZ fixed at 8 mg/L
  MIC: 2 µg/mL
[1]; Acinetobacter proteolyticus, isolate NO-Ab102, Acinetobacter proteolyticus, in combinations ETZ fixed at 8 mg/L
  MIC: 4 µg/mL
[1]; Acinetobacter proteolyticus, isolate NO-Ab210, Acinetobacter proteolyticus, in combinations ETZ fixed at 8 mg/L
  MIC: 1 µg/mL
[1]; Acinetobacter radioresistens, isolate NO-Ab175, Acinetobacter radioresistens, in combinations ETZ fixed at 8 mg/L
  MIC: 1 µg/mL
[1]; Acinetobacter radioresistens, isolate NO-Ab215, Acinetobacter radioresistens, in combinations ETZ fixed at 8 mg/L
  MIC: 0.5 µg/mL
[1]; Acinetobacter ursingii, isolate NO-Ab3, Acinetobacter ursingii, in combinations ETZ fixed at 8 mg/L
  MIC: 0.25 µg/mL
[1]; Acinetobacter ursingii, isolate NO-Ab64, Acinetobacter ursingii, in combinations ETZ fixed at 8 mg/L
  MIC: 1 µg/mL
[1]; Acinetobacter ursingii, isolate NO-Ab87, Acinetobacter ursingii, in combinations ETZ fixed at 8 mg/L
  MIC: 0.5 µg/mL
[1]; Acinetobacter ursingii, isolate NO-Ab103, Acinetobacter ursingii, in combinations ETZ fixed at 8 mg/L
  MIC: 0.5 µg/mL
[1]; Acinetobacter ursingii, isolate NO-Ab119, Acinetobacter ursingii, in combinations ETZ fixed at 8 mg/L
  MIC: 8 µg/mL
[1]; Acinetobacter ursingii, isolate NO-Ab120, Acinetobacter ursingii, in combinations ETZ fixed at 8 mg/L
  MIC: 1 µg/mL
[1]; Acinetobacter ursingii, isolate NO-Ab123, Acinetobacter ursingii, in combinations ETZ fixed at 8 mg/L
  MIC: 2 µg/mL
[1]; Acinetobacter ursingii, isolate NO-Ab126, Acinetobacter ursingii, in combinations ETZ fixed at 8 mg/L
  MIC: 0.5 µg/mL
[1]; Acinetobacter ursingii, isolate NO-Ab147, Acinetobacter ursingii, in combinations ETZ fixed at 8 mg/L
  MIC: 4 µg/mL
[1]; Acinetobacter ursingii, isolate NO-Ab155, Acinetobacter ursingii, in combinations ETZ fixed at 8 mg/L
  MIC: 4 µg/mL
[1]; Acinetobacter ursingii, isolate NO-Ab165, Acinetobacter ursingii, in combinations ETZ fixed at 8 mg/L
  MIC: 2 µg/mL
[1]; Acinetobacter ursingii, isolate NO-Ab166, Acinetobacter ursingii, in combinations ETZ fixed at 8 mg/L
  MIC: 0.5 µg/mL
[1]; Acinetobacter ursingii, isolate NO-Ab214, Acinetobacter ursingii, in combinations ETZ fixed at 8 mg/L
  MIC: 0.5 µg/mL
[1]; Acinetobacter ursingii, isolate NO-Ab221, Acinetobacter ursingii, in combinations ETZ fixed at 8 mg/L
  MIC: 1 µg/mL
[1]; Acinetobacter ursingii, isolate NO-Ab222, Acinetobacter ursingii, in combinations ETZ fixed at 8 mg/L
  MIC: 1 µg/mL
[1]; Acinetobacter, MBC set, isolate NO-Ab84, A. bereziniae
  MIC: 1 µg/mL (≈ 3.18 µM)
[1]; Acinetobacter, MBC set, isolate NO-Ab88, A. dijkshoorniae
  MIC: 2 µg/mL (≈ 6.36 µM)
[1]; Acinetobacter, isolate NO-Ab146, Acinetobacter iwoffii, in combinations ETZ fixed at 8 mg/L
  MIC: 4 µg/mL
[1]; Acinetobacter, isolate NO-Ab159, Acinetobacter iwoffii, in combinations ETZ fixed at 8 mg/L
  MIC: 2 µg/mL
[1]; [3]
  MIC50: 2 µg/mL
  MIC90: 4 µg/mL
[1]; cumulative share of A. non-baumannii isolates (n=87) at MIC 0.25 mg/L, ETZ fixed 8 mg/L in combinations
  MIC distribution 0.25: 1.1
[1]; cumulative share of A. non-baumannii isolates (n=87) at MIC 0.5 mg/L, ETZ fixed 8 mg/L in combinations
  MIC distribution 0.5: 9.2
[1]; cumulative share of A. non-baumannii isolates (n=87) at MIC 1 mg/L, ETZ fixed 8 mg/L in combinations
  MIC distribution 1: 29.9
[1]; cumulative share of A. non-baumannii isolates (n=87) at MIC 2 mg/L, ETZ fixed 8 mg/L in combinations
  MIC distribution 2: 75.9
[1]; cumulative share of A. non-baumannii isolates (n=87) at MIC 4 mg/L, ETZ fixed 8 mg/L in combinations
  MIC distribution 4: 96.6
[1]; cumulative share of A. non-baumannii isolates (n=87) at MIC 8 mg/L, ETZ fixed 8 mg/L in combinations
  MIC distribution 8: 98.9
[1]; cumulative share of A. non-baumannii isolates (n=87) at MIC 16 mg/L, ETZ fixed 8 mg/L in combinations
  MIC distribution 16: 100
[1]; cumulative share of A. non-baumannii isolates (n=87) at MIC 32 mg/L, ETZ fixed 8 mg/L in combinations
  MIC distribution 32: 100
[1]; cumulative share of A. non-baumannii isolates (n=87) at MIC ≤0.06 mg/L, ETZ fixed 8 mg/L in combinations
  MIC distribution ≤0.06: 0
[2]
  IC50: 32.4 µM
